Data from the supplement of paper PMC10307832.

What was measured:
Assay in all cases: relative viability (nuclei count vs DMSO), 5 days (fraction); higher = more cells survive
[1] = test system: 201T
Outline: (§1)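 Medians of duplicate plates are given as relative viability. That measure is the nuclei count in treated wells divided by the count in vehicle wells. Counts were taken on 4× images of lung cancer cell lines in 1536-well plates, 5 days after pin-tool dosing the day after seeding with one drug alone or a fixed anchor-drug dose plus five library-drug doses (not always all listed) in √10 steps.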

[2] = test system: COR-L 105
Outline: as §1

[3] = test system: COR-L23
Outline: as §1

[4] = test system: EMC-BAC-2
Outline: as §1

[5] = test system: HCC-15
Outline: as §1

[6] = test system: HCC-366
Outline: as §1

[7] = test system: LC-2-ad
Outline: as §1

[8] = test system: NCI-H1395
Outline: as §1

[9] = test system: NCI-H1437
Outline: as §1

[10] = test system: NCI-H1755
Outline: as §1

[11] = test system: NCI-H1792
Outline: as §1

[12] = test system: NCI-H1793
Outline: as §1

[13] = test system: NCI-H1915
Outline: as §1

[14] = test system: NCI-H2009
Outline: as §1

[15] = test system: NCI-H2023
Outline: as §1

[16] = test system: NCI-H2342
Outline: as §1

[17] = test system: NCI-H2347
Outline: as §1

[18] = test system: NCI-H23
Outline: as §1

[19] = test system: NCI-H358
Outline: as §1

[20] = test system: NCI-H650
Outline: as §1

[21] = test system: PC-14
Outline: as §1

[22] = test system: SK-MES-1
Outline: as §1

Cc1csc(=NC2CCCCC2)n1/N=C/c1ccc(O)c(O)c1O [MIM1] + Nc1ncn([C@H]2C[C@H](O)[C@@H](CO)O2)c(=O)n1 [Decitabine] (partner 2 µM)
relative viability ([1]; first compound 0.2 µM): 0.849 | relative viability ([1]; first compound 0.6325 µM): 0.887 | relative viability ([1]; first compound 2 µM): 0.812 | relative viability ([1]; first compound 6.325 µM): 0.831 | relative viability ([1]; first compound 20 µM): 0.533 | relative viability ([2]; first compound 0.2 µM): 0.592 | relative viability ([2]; first compound 0.6325 µM): 0.661 | relative viability ([2]; first compound 2 µM): 0.72 | relative viability ([2]; first compound 6.325 µM): 0.571 | relative viability ([2]; first compound 20 µM): 0.571 | relative viability ([3]; first compound 0.2 µM): 0.405 | relative viability ([3]; first compound 0.6325 µM): 0.475 | relative viability ([3]; first compound 2 µM): 0.418 | relative viability ([3]; first compound 6.325 µM): 0.346 | relative viability ([3]; first compound 20 µM): 0.225 | relative viability ([4]; first compound 0.2 µM): 0.97 | relative viability ([4]; first compound 0.6325 µM): 0.897 | relative viability ([4]; first compound 2 µM): 0.8 | relative viability ([4]; first compound 6.325 µM): 0.852 | relative viability ([4]; first compound 20 µM): 0.368 | relative viability ([5]; first compound 0.2 µM): 0.634 | relative viability ([5]; first compound 0.6325 µM): 0.607 | relative viability ([5]; first compound 2 µM): 0.66 | relative viability ([5]; first compound 6.325 µM): 0.341 | relative viability ([5]; first compound 20 µM): 0.163 | relative viability ([6]; first compound 0.2 µM): 0.295 | relative viability ([6]; first compound 2 µM): 0.354 | relative viability ([6]; first compound 6.325 µM): 0.176 | relative viability ([6]; first compound 20 µM): 0.0249 | relative viability ([7]; first compound 0.2 µM): 0.777 | relative viability ([7]; first compound 0.6325 µM): 0.736 | relative viability ([7]; first compound 2 µM): 0.868 | relative viability ([7]; first compound 6.325 µM): 0.453 | relative viability ([7]; first compound 20 µM): 0.508 | relative viability ([8]; first compound 0.2 µM): 0.708 | relative viability ([8]; first compound 0.6325 µM): 0.793 | relative viability ([8]; first compound 2 µM): 0.646 | relative viability ([8]; first compound 6.325 µM): 0.688 | relative viability ([8]; first compound 20 µM): 0.427 | relative viability ([9]; first compound 0.2 µM): 0.592 | relative viability ([9]; first compound 0.6325 µM): 0.547 | relative viability ([9]; first compound 2 µM): 0.586 | relative viability ([9]; first compound 6.325 µM): 0.368 | relative viability ([9]; first compound 20 µM): 0.303 | relative viability ([10]; first compound 0.2 µM): 0.724 | relative viability ([10]; first compound 0.6325 µM): 0.694 | relative viability ([10]; first compound 2 µM): 0.727 | relative viability ([10]; first compound 6.325 µM): 0.657 | relative viability ([10]; first compound 20 µM): 0.549 | relative viability ([11]; first compound 0.2 µM): 0.574 | relative viability ([11]; first compound 0.6325 µM): 0.497 | relative viability ([11]; first compound 2 µM): 0.611 | relative viability ([11]; first compound 6.325 µM): 0.439 | relative viability ([11]; first compound 20 µM): 0.411 | relative viability ([12]; first compound 0.2 µM): 0.507 | relative viability ([12]; first compound 2 µM): 0.518 | relative viability ([12]; first compound 6.325 µM): 0.479 | relative viability ([12]; first compound 20 µM): 0.495 | relative viability ([13]; first compound 0.2 µM): 0.263 | relative viability ([13]; first compound 0.6325 µM): 0.273 | relative viability ([13]; first compound 2 µM): 0.256 | relative viability ([13]; first compound 6.325 µM): 0.232 | relative viability ([13]; first compound 20 µM): 0.245 | relative viability ([14]; first compound 0.2 µM): 0.401 | relative viability ([14]; first compound 0.6325 µM): 0.39 | relative viability ([14]; first compound 2 µM): 0.371 | relative viability ([14]; first compound 6.325 µM): 0.36 | relative viability ([14]; first compound 20 µM): 0.291 | relative viability ([15]; first compound 0.2 µM): 0.24 | relative viability ([15]; first compound 0.6325 µM): 0.215 | relative viability ([15]; first compound 2 µM): 0.212 | relative viability ([15]; first compound 6.325 µM): 0.157 | relative viability ([15]; first compound 20 µM): 0.0821 | relative viability ([16]; first compound 0.2 µM): 0.724 | relative viability ([16]; first compound 0.6325 µM): 0.721 | relative viability ([16]; first compound 2 µM): 0.708 | relative viability ([16]; first compound 6.325 µM): 0.664 | relative viability ([16]; first compound 20 µM): 0.724 | relative viability ([17]; first compound 0.2 µM): 0.592 | relative viability ([17]; first compound 0.6325 µM): 0.592 | relative viability ([17]; first compound 2 µM): 0.64 | relative viability ([17]; first compound 6.325 µM): 0.574 | relative viability ([17]; first compound 20 µM): 0.527 | relative viability ([18]; first compound 0.2 µM): 0.336 | relative viability ([18]; first compound 0.6325 µM): 0.322 | relative viability ([18]; first compound 2 µM): 0.288 | relative viability ([18]; first compound 6.325 µM): 0.281 | relative viability ([18]; first compound 20 µM): 0.169 | relative viability ([19]; first compound 0.2 µM): 0.212 | relative viability ([19]; first compound 0.6325 µM): 0.224 | relative viability ([19]; first compound 2 µM): 0.216 | relative viability ([19]; first compound 6.325 µM): 0.148 | relative viability ([19]; first compound 20 µM): 0.119 | relative viability ([20]; first compound 0.2 µM): 0.294 | relative viability ([20]; first compound 0.6325 µM): 0.342 | relative viability ([20]; first compound 2 µM): 0.345 | relative viability ([20]; first compound 6.325 µM): 0.323 | relative viability ([20]; first compound 20 µM): 0.206 | relative viability ([21]; first compound 0.2 µM): 0.17 | relative viability ([21]; first compound 0.6325 µM): 0.197 | relative viability ([21]; first compound 2 µM): 0.201 | relative viability ([21]; first compound 6.325 µM): 0.137 | relative viability ([21]; first compound 20 µM): 0.0966 | relative viability ([22]; first compound 0.2 µM): 0.454 | relative viability ([22]; first compound 0.6325 µM): 0.424 | relative viability ([22]; first compound 2 µM): 0.376 | relative viability ([22]; first compound 6.325 µM): 0.272 | relative viability ([22]; first compound 20 µM): 0.21
